We go through 22 compounds from US8017612B2, “Piperazine compound and use thereof as a HCV polymerase inhibitor” (priority 2006, dated 2011).

pIC50: −log10 of the molar value. Where a name gives a salt, the structure may show the parent alone.

In assay [1] the target is T1, HCV polymerase (NS5B) type 1a (Hepatitis C virus genotype 1a, UniProt P26664).
T1 construct: made in house; host or cells: Escherichia coli (by the 'similar method' of the 1b enzyme)
Description: Assay of enzyme (HCV polymerase) inhibitory activity, type 1a enzyme. Type of assay: biochemical, HCV type 1a (cloned from the blood of patients). The method in brief: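 Reactions ran 60 min at 25° C in 20 mM Tris-HCl pH 7.5, 5 mM MgCl2, 50 mM NaCl, holding genotype 1a NS5B (1.5 μg/ml, Δ47 C-terminus, 6His), substrate RNA 5 μg/ml, UTP 2 μM with tritiated UTP and other NTPs 50 μM. IC50 derived from incorporated radiolabel in filter-trapped RNA relative to uninhibited reaction.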

Assay [2] concerns the target T2, HCV polymerase (NS5B) type 1b (Hepatitis C virus genotype 1b, UniProt P26663).
T2 construct: a region encoding NS5B (J Virol 1991 March, 65(3), 1105-13, 544 amino acids after deletion of 47 amino acids on the C-terminal); 6xHis (C); made in house; host or cells: Escherichia coli
Description: Assay of enzyme (HCV polymerase) inhibitory activity, type 1b enzyme. In kind it is biochemical, HCV BK strain (type 1b). A digest of the protocol:
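IC50 derived from [3H]UTP incorporation into TCA-insoluble RNA, compared with and without test compound. Reaction (25 °C, 60 min, Tris pH 7.5, 5 mM MgCl2): E. coli-expressed 1b NS5B Δ47 with His tag at 0.5 μg/ml, 5 μg/ml run-off substrate RNA, ATP/GTP/CTP 50 μM, UTP 2 μM.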

The mark [3] stands for this setting: HCV polymerase inhibitory activity (IC50), 1a, type 1a enzyme 1.5 μg/ml, 25° C., 60 min.
The mark [4] stands for this setting: HCV polymerase inhibitory activity (IC50), 1b, type 1b enzyme 0.5 μg/ml, 25° C., 60 min.
Setting [5] is: HCV polymerase inhibitory activity IC50, 1a, type 1a enzyme.
[6] abbreviates: HCV polymerase inhibitory activity IC50, 1b, type 1b enzyme.

Consider `Cc1nc(N2CCN(S(=O)(=O)c3ccc(OC(F)(F)F)cc3)[C@@H](C(=O)NCc3ccc(C(C)(C)C)cc3)C2)sc1C(=O)O` [Example 367, 2-[(R)-3-(4-tert-butyl-benzylcarbamoyl)-4-(4-trifluoromethoxy-benzenesulfonyl)-piperazin-1-yl]-4-methyl-thiazole-5-carboxylic acid], for which the pIC50 in assay [1] (setting [3]) and in assay [2] (setting [4]) was greater than 7.00 in each case.

As for `O=C(NCc1ccc(OC(F)F)c(F)c1)[C@H]1CN(c2nc3nc(C(F)(F)F)ncc3s2)CCN1S(=O)(=O)c1ccc(C(F)(F)F)cc1` [Example 1085, (R)-1-(4-trifluoromethyl-benzenesulfonyl)-4-(5-trifluoromethyl-thiazolo[4,5-d]pyrimidin-2-yl)-piperazine-2-carboxylic acid 4-difluoromethoxy-3-fluoro-benzylamide], the pIC50 in assay [1] (setting [5]) and in assay [2] (setting [6]) was greater than 7.00 each time.

For `CC(=O)N1CCN(S(=O)(=O)c2ccc(Br)cc2F)[C@@H](C(=O)NCc2ccc(C(C)C)cc2)C1` [Example 419, (R)-4-acetyl-1-(4-bromo-2-fluoro-benzenesulfonyl)-piperazine-2-carboxylic acid 4-isopropyl-benzylamide], the pIC50 in assay [1] (setting [3]) and in assay [2] (setting [4]) was 6.00 to 7.00 in each case.

As for `CC(=O)N1CCN(S(=O)(=O)c2cc3ccccc3s2)C(C(=O)NCc2ccc(C(F)(F)F)cc2)C1` (centres unmarked) [Example 74, 4-acetyl-1-(benzo[b]thiophene-2-sulfonyl)-piperazine-2-carboxylic acid 4-trifluoromethyl-benzylamide], the pIC50 in assay [1] (setting [3]) and in assay [2] (setting [4]) was less than 6.00 throughout.

In the case of `O=C(NCc1ccc(OC(F)(F)F)cc1)[C@H]1CN(c2nc3c(CO)n[nH]c(=O)c3s2)CCN1S(=O)(=O)c1ccc(OC(F)(F)F)cc1` [Example 870, (R)-4-(4-hydroxymethyl-7-oxo-6,7-dihydro-thiazolo[4,5-d]pyridazin-2-yl)-1-(4-trifluoromethoxy-benzenesulfonyl)-piperazine-2-carboxylic acid 4-trifluoromethoxy-benzylamide], the pIC50 in assay [1] (setting [5]) and in assay [2] (setting [6]) was greater than 7.00 each time.

`CCCc1ccc(CNC(=O)[C@H]2CN(C(=O)Nc3nc(CC(=O)OCC)cs3)CCN2S(=O)(=O)c2ccc(OC(F)(F)F)cc2)cc1` [Example 470, (2-{[(R)-3-(4-propyl-benzylcarbamoyl)-4-(4-trifluoromethoxy-benzenesulfonyl)-piperazine-1-carbonyl]-amino}-thiazol-4-yl)-acetic acid ethyl ester]: the pIC50 in assay [1] (setting [3]) and in assay [2] (setting [4]) was 6.00 to 7.00 throughout.

For `CCC(F)(F)c1ccc(CNC(=O)[C@H]2CN(C(=O)Cc3cc(C)no3)CCN2S(=O)(=O)c2ccc(OC(F)(F)F)cc2)cc1` [Example 480, (R)-4-[2-(3-methyl-isoxazol-5-yl)-acetyl]-1-(4-trifluoromethoxy-benzenesulfonyl)-piperazine-2-carboxylic acid 4-(1,1-difluoro-propyl)-benzylamide], the pIC50 in assay [1] (setting [3]) and in assay [2] (setting [4]) was greater than 7.00 each time.

Turning to `Cc1nc(N2CCN(S(=O)(=O)c3ccc(OC(F)(F)F)cc3)[C@@H](C(=O)NCc3ccc(OC(F)(F)F)cc3)C2)cnc1C(=O)O` [Example 809, (R)-6′-methyl-4-(4-trifluoromethoxy-benzenesulfonyl)-3-(4-trifluoromethoxy-benzylcarbamoyl)-3,4,5,6-tetrahydro-2H-[1,2′]bipyrazinyl-5′-carboxylic acid], the pIC50 in assay [1] (setting [5]) and in assay [2] (setting [6]) was greater than 7.00 throughout.

Regarding `CC(C)c1ccc(CNC(=O)[C@H]2CN(C(=O)Nc3ccncc3)CCN2S(=O)(=O)c2ccc(C(F)(F)F)cc2)cc1` [Example 3, (R)-4-(4-trifluoromethyl-benzenesulfonyl)-piperazine-1,3-dicarboxylic acid 3-(4-isopropyl-benzylamide) 1-pyridin-4-ylamide], the pIC50 in assay [1] (setting [3]) and in assay [2] (setting [4]) was greater than 7.00 each time.

Turning to `CC(=O)N1CCN(S(=O)(=O)c2ccc(Cl)cc2)C(C(=O)NCc2ccc(C(F)(F)F)cc2)C1` (centres unmarked) [Example 20, 4-acetyl-1-(4-chloro-benzenesulfonyl)-piperazine-2-carboxylic acid 4-trifluoromethyl-benzylamide], the pIC50 in assay [1] (setting [3]) and in assay [2] (setting [4]) was less than 6.00 throughout.

As for `Cc1ncc2nc(N3CCN(S(=O)(=O)c4ccc(OC(F)(F)F)cc4)[C@@H](C(=O)NCc4ccc(OC(F)(F)F)cc4)C3)sc2n1` [Example 921, (R)-4-(5-methyl-thiazolo[5,4-d]pyrimidin-2-yl)-1-(4-trifluoromethoxy-benzenesulfonyl)-piperazine-2-carboxylic acid 4-trifluoromethoxy-benzylamide], the values for the pIC50 in assay [1] (setting [5]) and in assay [2] (setting [6]) were 6.00 to 7.00 and greater than 7.00, respectively.

As for `O=C(NCc1ccc(OC(F)(F)F)cc1)[C@H]1CN(c2nc3c(CO)nncc3s2)CCN1S(=O)(=O)c1ccc(OC(F)(F)F)cc1` [Example 940, (R)-4-(4-hydroxymethyl-thiazolo[4,5-d]pyridazin-2-yl)-1-(4-trifluoromethoxy-benzenesulfonyl)-piperazine-2-carboxylic acid 4-trifluoromethoxy-benzylamide], the pIC50 in assay [1] (setting [5]) and in assay [2] (setting [6]) was greater than 7.00 in each case.

As for `CCC(F)(F)c1ccc(CNC(=O)[C@H]2CN(C(=O)Nc3ccnc(C(=O)N(C)C)c3)CCN2S(=O)(=O)c2ccc(OC(F)(F)F)cc2)cc1` [Example 504, (R)-4-(4-trifluoromethoxy-benzenesulfonyl)-piperazine-1,3-dicarboxylic acid 3-[4-(1,1-difluoro-propyl)-benzylamide] 1-[(2-dimethylcarbamoyl-pyridin-4-yl)-amide]], the pIC50 in assay [1] (setting [3]) and in assay [2] (setting [4]) was greater than 7.00 in each case.

As to `CC(=O)N1CCN(S(=O)(=O)c2cccc(Br)c2)C(C(=O)NCc2ccc(C(F)(F)F)cc2)C1` (centres unmarked) [Example 165, 4-acetyl-1-(3-bromo-benzenesulfonyl)-piperazine-2-carboxylic acid 4-trifluoromethyl-benzylamide], the negative-log IC50 (pIC50) in assay [1] (setting [3]) and in assay [2] (setting [4]) was less than 6.00 each time.

On to `CC(=O)N1CCN(S(=O)(=O)c2ccc(Br)cc2)[C@@H](C(=O)NCc2ccc(C(C)C)cc2)C1` [Example 430, (R)-4-acetyl-1-(4-bromo-benzenesulfonyl)-piperazine-2-carboxylic acid 4-isopropyl-benzylamide], for which the pIC50 in assay [1] (setting [3]) and in assay [2] (setting [4]) was 6.00 to 7.00 each time.

Turning to `COc1ccc(CNC(=O)[C@H]2CN(c3cnc4cncnc4n3)CCN2S(=O)(=O)c2ccc(OC(F)(F)F)cc2)cc1` [Example 658, (R)-4-pteridin-7-yl-1-(4-trifluoromethoxy-benzenesulfonyl)-piperazine-2-carboxylic acid 4-methoxy-benzylamide], the pIC50 in assay [1] (setting [3]) and in assay [2] (setting [4]) was greater than 7.00 each time.

Take `CC(C)c1ccc(CNC(=O)[C@H]2CN(C(=O)CCN)CCN2S(=O)(=O)c2ccc(C(F)(F)F)cc2)cc1` [Example 189, (R)-4-(3-amino-propionyl)-1-(4-trifluoromethyl-benzenesulfonyl)-piperazine-2-carboxylic acid 4-isopropyl-benzylamide hydrochloride]: the pIC50 in assay [1] (setting [3]) and in assay [2] (setting [4]) was less than 6.00 in each case.

On to `O=C(NCc1ccc(OC(F)(F)F)cc1)[C@H]1CN(c2cnc3cncnc3n2)CCN1S(=O)(=O)c1ccc([N+](=O)[O-])cc1` [Example 790, (R)-1-(4-nitro-benzenesulfonyl)-4-pteridin-7-yl-piperazine-2-carboxylic acid 4-trifluoromethoxy-benzylamide], for which the pIC50 in assay [1] (setting [5]) and in assay [2] (setting [6]) was greater than 7.00 each time.

Take `CC(C)(C)c1ccc(CNC(=O)[C@H]2CN(c3cnc(CN4CCCC4)cn3)CCN2S(=O)(=O)c2ccc(OC(F)(F)F)cc2)cc1` [Example 558, (R)-5′-pyrrolidin-1-ylmethyl-4-(4-trifluoromethoxy-benzenesulfonyl)-3,4,5,6-tetrahydro-2H-[1,2′]bipyrazinyl-3-carboxylic acid 4-tert-butyl-benzylamide]: the pIC50 was 6.00 to 7.00 in assay [1] (setting [3]) and greater than 7.00 in assay [2] (setting [4]).

As for `CCc1ccc(CNC(=O)[C@H]2CN(c3nc(C)c(C(=O)O)s3)CCN2S(=O)(=O)c2ccc(OC(F)(F)F)cc2)cc1` [Example 366, 2-[(R)-3-(4-ethyl-benzylcarbamoyl)-4-(4-trifluoromethoxy-benzenesulfonyl)-piperazin-1-yl]-4-methyl-thiazole-5-carboxylic acid], the pIC50 in assay [1] (setting [3]) and in assay [2] (setting [4]) was greater than 7.00 each time.

For `CCCc1ccc(CNC(=O)[C@H]2CN(c3nc4c(C(=O)O)n[nH]c(=O)c4s3)CCN2S(=O)(=O)c2ccc(CC)cc2)cc1` [Example 863, 2-[(R)-4-(4-ethyl-benzenesulfonyl)-3-(4-propyl-benzylcarbamoyl)-piperazin-1-yl]-7-oxo-6,7-dihydro-thiazolo[4,5-d]pyridazine-4-carboxylic acid], the negative-log IC50 (pIC50) in assay [1] (setting [5]) and in assay [2] (setting [6]) was greater than 7.00 in each case.

For the compound `CCC(F)(F)c1ccc(CNC(=O)[C@H]2CN(c3cnc4cccnc4n3)CCN2S(=O)(=O)c2ccc(OC(F)(F)F)cc2)cc1` [Example 760, (R)-4-pyrido[2,3-b]pyrazin-3-yl-1-(4-trifluoromethoxy-benzenesulfonyl)-piperazine-2-carboxylic acid 4-(1,1-difluoro-propyl)-benzylamide], the pIC50 in assay [1] (setting [5]) and in assay [2] (setting [6]) was greater than 7.00 in each case.

Usually pIC50 stands for the IC50 on a negative log10 scale, so that one unit is a factor of ten.
